Test results: patent US9227935B2, “Piperidine/piperazine derivatives” (Janssen Pharmaceutica N.V., priority 2007, dated 2016)

Biological target: T1, human DGAT1 (Homo sapiens, UniProt O75907)
T1 construct: FLAG (N); made in house; host or cells: SF9 insect cells (baculovirus, pFastBac); total cell membranes used as the enzyme source
T1 sequence (O75907 1-488): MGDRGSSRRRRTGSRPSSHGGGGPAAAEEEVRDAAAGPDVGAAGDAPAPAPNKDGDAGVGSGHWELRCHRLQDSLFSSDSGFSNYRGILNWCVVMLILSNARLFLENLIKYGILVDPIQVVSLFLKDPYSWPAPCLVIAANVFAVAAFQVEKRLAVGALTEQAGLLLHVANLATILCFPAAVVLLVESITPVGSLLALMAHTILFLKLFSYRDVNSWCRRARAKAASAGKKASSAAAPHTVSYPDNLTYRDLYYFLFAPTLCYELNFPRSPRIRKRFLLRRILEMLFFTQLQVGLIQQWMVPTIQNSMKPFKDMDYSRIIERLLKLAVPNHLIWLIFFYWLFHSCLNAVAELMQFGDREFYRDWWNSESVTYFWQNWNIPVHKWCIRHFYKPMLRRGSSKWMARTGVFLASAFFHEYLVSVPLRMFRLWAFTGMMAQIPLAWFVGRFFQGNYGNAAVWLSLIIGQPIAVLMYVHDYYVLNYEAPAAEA
Assay: DGAT1 FlashPlate inhibition assay with DGAT1 membrane preparations
Type: biochemical
Details: IC50 values expressed in M; pIC50 = -logIC50; inhibition of DGAT1 activity
Procedure, shortened: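 Membranes from Sf9 cells expressing N-FLAG human DGAT1 were incubated 120 min at 37 °C with 50 μM DAG in PC/PS micelles and 8.4 μM [3H]-oleoylCoA in Tris pH 7.4, MgCl2, EDTA and 0.2% BSA. The reaction was stopped with N-ethylmaleimide, and triacylglycerol was read by FlashPlate radioluminescence and normalised to enzyme and no-enzyme controls.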
`O=C(Nc1ccc(N2CCN(C(=S)Nc3c(Cl)cccc3Cl)CC2)cc1)c1ccccc1-c1ccc(C(F)(F)F)cc1` [Compound 8] showed an IC50 of 214 nM.
For `O=C(Nc1ccc(N2CCN(C(=O)Nc3c(Cl)cccc3Cl)CC2)cc1)c1ccccc1-c1ccc(C(F)(F)F)cc1` [Compound 9], the IC50 was 30.2 nM.
`O=C(Nc1cccc(N2CCCC2)c1)c1ccc(N2CCN(C(=O)Nc3c(Cl)cc(CCN4CCCC4)cc3Cl)CC2)cc1` [Compound 129] showed an IC50 of 5.37 nM.
With `O=C(Nc1cccc(N2CCCC2)c1)c1ccc(N2CCN(C(=O)Nc3c(Cl)cc(CN4CCCC4)cc3Cl)CC2)cc1` [Compound 130] the IC50 was 7.24 nM.
In the case of `O=C(Nc1cccc(N2CCCC2)c1)c1ccc(N2CCN(C(=O)Cc3c(Cl)cccc3Cl)CC2)cc1` [Compound 131], the IC50 is reported as 30.9 nM.
With `CN1CCN(C(=O)Cc2cc(Cl)c(NC(=O)N3CCN(c4ccc(NC(=O)c5cccc(N6CCCC6)c5)cc4)CC3)c(Cl)c2)CC1` [Compound 136] the IC50 was 1.82 nM.
Work on `CC(C)N(Cc1cc(Cl)c(NC(=O)N2CCN(c3ccc(NC(=O)c4cccc(N5CCCC5)c4)cc3)CC2)c(Cl)c1)C(C)C` [Compound 137] yielded an IC50 of 4.17 nM.
With `CCOC(=O)Cc1cccc(C(=O)Nc2ccc(N3CCN(C(=O)Nc4c(Cl)cc(CN5CCCCC5)cc4Cl)CC3)cc2)c1` [Compound 138] the IC50 was 11.5 nM.
`O=C(Nc1ccc(N2CCN(C(=O)Oc3c(Cl)cccc3Cl)CC2)cc1)c1cccc(N2CCCC2)c1` [Compound 139] gave an IC50 of 6.46 nM.
Work on `COC(=O)c1cccc(C(=O)Nc2ccc(N3CCN(C(=O)Nc4c(Cl)cc(CN5CCCC5)cc4Cl)CC3)cc2)c1` [Compound 140] yielded an IC50 of 12.6 nM.
`O=C(O)Cc1cccc(C(=O)Nc2ccc(N3CCN(C(=O)Nc4c(Cl)cc(CN5CCCCC5)cc4Cl)CC3)cc2)c1` [Compound 143] showed an IC50 of 3310 nM.
`COC(=O)c1cccc(C(=O)Nc2ccc(N3CCN(C(=O)Cc4c(Cl)cc(CN5CCCC5)cc4Cl)CC3)cc2)c1` [Compound 145] gave an IC50 of 112 nM.
With `O=C(O)c1cccc(C(=O)Nc2ccc(N3CCN(C(=O)Cc4c(Cl)cc(CN5CCCC5)cc4Cl)CC3)cc2)c1` [Compound 146] the IC50 was 3390 nM.

System: not given
Assay: not given
Details: not given
In the case of `O=C(Nc1ccc(N2CCN(C(=S)Nc3c(Cl)cccc3Cl)CC2)cc1)c1ccccc1-c1ccc(C(F)(F)F)cc1` [Compound 8], the melting point is reported as 224.5 °C.
With `O=C(Nc1ccc(N2CCN(C(=O)Nc3c(Cl)cccc3Cl)CC2)cc1)c1ccccc1-c1ccc(C(F)(F)F)cc1` [Compound 9] the melting point was 289 °C.
In the case of `CN1CCN(C(=O)Cc2cc(Cl)c(NC(=O)N3CCN(c4ccc(NC(=O)c5cccc(N6CCCC6)c5)cc4)CC3)c(Cl)c2)CC1` [Compound 136], the melting point is reported as 254.77 °C.
With `CC(C)N(Cc1cc(Cl)c(NC(=O)N2CCN(c3ccc(NC(=O)c4cccc(N5CCCC5)c4)cc3)CC2)c(Cl)c1)C(C)C` [Compound 137] the melting point was 270.85 °C.
Compound `O=C(Nc1ccc(N2CCN(C(=O)Oc3c(Cl)cccc3Cl)CC2)cc1)c1cccc(N2CCCC2)c1` [Compound 139] has a melting point of 212.69 °C.
Work on `COC(=O)c1cccc(C(=O)Nc2ccc(N3CCN(C(=O)Nc4c(Cl)cc(CN5CCCC5)cc4Cl)CC3)cc2)c1` [Compound 140] yielded a melting point of 247.52 °C.
